Test results taken from US20170157159A1, “COMBINATION TREATMENT OF ACUTE MYELOID LEUKEMIA AND MYELODYSPLASTIC SYNDROME I” (Boehringer Ingelheim International GmbH, priority 2013, published 2017).

Test system: human AML cell line MV4;11
Test: Nude mouse xenograft model derived from human AML cell line MV4;11: tumor growth
Type: in vivo
Conditions: 21 days, MV4;11 xenograft
Description: MV4;11 (CRL-9591) cells were obtained from ATCC. According to the Catalogue of Somatic Mutations in Cancer of the Wellcome Trust Sanger Institute, UK, this cell line carries a mutation in the FLT3 gene. Cells were cultured in T175 tissue culture flasks at 37° C. and 5% CO2. The medium used was IMDM supplemented with 10% fetal calf serum, 1% NEAA, 1% sodium pyruvate and 1% glutamine.
Mice were 8-9 week-old athymic female BomTac: NMRI-Foxn1^nu purchased from Taconic, Denmark. After arrival in the animal facility, mice were allowed to adjust to ambient conditions for at least 3 days before they were used for experiments. They were housed in Macrolon® type II cages in groups of 5 under standardized conditions at 21.5±1.5° C. temperature and 55±10% humidity. Standardized diet (PROVIMI KLIBA) and autoclaved tap water were provided ad libitum.
To establish subcutaneous tumors, MV4;11 cells were harvested and resuspended in PBS+5% FCS at 5×10^7 cells/ml. 50 μl of the cell suspension containing 2.5×10^6 cells was then injected subcutaneously into the right flank of the mice (1 site per mouse). Growth factor reduced BD Matrigel™ Matrix (BD Biosciences) was added to the cell suspension at a ratio of 1:1 before the injection.
Volasertib (BI 6727) was dissolved in hydrochloric acid (0.1 N), diluted with 0.9% NaCl and injected intravenously into the tail vein. An administration volume of 10 ml per kg body weight was used. The solution was freshly made up each injection day. Decitabine was dissolved in 0.9% NaCl and administered i.p. An administration volume of 10 ml per kg body weight was used.
The tumor diameter was measured three times a week with a caliper. The volume of each tumor [in mm^3] was calculated according to the formula “tumor volume=length*diameter^2*π/6”. To monitor side effects of treatment, mice were inspected daily for abnormalities and body weight was determined three times a week. […] In addition animals with tumor sizes exceeding 2000 mm^3 were sacrificed early during the studies for ethical reasons.
(§1) Animals were treated for 21 days.
as §1, §1

SMILES	T/C (ratio of median tumor volume of treated vs. control tumors) (Volasertib alone 10 mg/kg i.v. once weekly) [%]	T/C (ratio of median tumor volume of treated vs. control tumors) (Volasertib alone 20 mg/kg i.v. once weekly) [%]	T/C (ratio of median tumor volume of treated vs. control tumors) (decitabine alone 1.25 mg/kg i.p. twice weekly on two consecutive days) [%]	T/C (ratio of median tumor volume of treated vs. control tumors) (decitabine alone 2.5 mg/kg i.p. twice weekly on two consecutive days) [%]
CC[C@@H]1C(=O)N(C)c2cnc(Nc3ccc(C(=O)N[C@H]4CC[C@H](N5CCN(CC6CC6)CC5)CC4)cc3OC)nc2N1C(C)C [Volasertib, N-[trans-4-[4-(cyclopropylmethyl)-1-piperazinyl]cyclohexyl]-4-[[(7R)-7-ethyl-5,6,7,8-tetrahydro-5-methyl-8-(1-methylethyl)-6-oxo-2-pteridinyl]amino]-3-methoxy-benzamide]	76	38		
Nc1ncn([C@H]2C[C@H](O)[C@@H](CO)O2)c(=O)n1 [decitabine, Decitabine]			59	53
